# Source: patent US20260297092A1, “PYRAZOLOPYRIMIDINE DERIVATIVES AS INHIBITORS OF NLRP3” (Takeda Pharmaceutical Company Limited, priority 2023, published 2026)
# Tested on: NLRP3 inflammasome (IL-1β production in THP-1 cells)
# Assay: IL-1β TR-FRET Assay (percentage of inhibition at 300 nM, 6 μM or 10 μM)
# Type: cell-based, human
# Details: Homo sapiens, THP-1, 300 nM, LPS priming, ATP activation, read-out: IL-1β inhibitory rate at 300 nM (%)
# Experimental: The biological activity of the compound of Formula 1 with respect to NLRP3 was determined using the following in vitro method.
# IL-1β TR-FRET Assay (reported as percentage of inhibition at 300 nM, 6 μM or 10 μM)
# Monocytic THP-1 cells (ATCC: TIB-202) were maintained in accordance with the provider's instructions in RPMI media (Life Technologies, Cat #A10491-01); RPMI was supplemented with 10% heat inactivated fetal bovine serum (Corning, Cat #35-010-CV). The cells were differentiated into macrophages by the addition of 25 ng/mL IFN-γ (PeproTech, Cat #AF-300-02-100UG) for 24 hours at 37° C./5% CO2. Media was exchanged with fresh media with no FBS, and the cells were treated with 50 ng/mL LPS (priming step) (LPS-EK: Invivogen, Cat #tlrl-peklps). The cells were plated at 20,000 cells per well in 384-well flat-bottom cell culture plates (FALCON, Cat #353962) and were incubated for 24 hours at 37° C./5% CO2. Compounds were serially diluted (half log or 5-fold dilutions) with DMSO and were finally diluted with Media with no FBS. The compounds were added to the cells in 384-well plates (added in 1:3) and then the plates were incubated for 30 minutes at 37° C./5% CO2. The NLRP3 inflammasome was activated with the addition of 20 mM ATP (Sigma Cat #A3377-25G) and the cells were incubated for 2 hours at 37° C./5% CO2. At the end of the incubation period, 30 μL supernatant was transferred to another 384-well plate and mixed on a plate shaker for 1 minute. The supernatant was mixed with HTRF Antibody (Human IL1 beta kit, Cisbio, 62HIL1BPEH) in assay plates (Greiner Bio-One, Cat #784075) and the assay plates were incubated in shading box at room temperature for 16-24 hours. HTRF signal was measured by EnVision (Perkinelmer) in accordance with the manufacturer's instructions.
# The percentage of inhibition at 300 nM, 6 μM or 10 μM in the IL-1βTR-FRET assay was calculated by the following formula: Percentage of inhibition=[1−(HTRF signaltest−HTRF signalLow)/(HTRF signalHigh−HTRF signalLow)]*100, where HTRF signaltest is the HTRF signal in the well to which test compound is added, HTRF signalLow is the HTRF signal in the well to which 3 μM MCC-950 is added, and the HTRF signalHigh is the HTRF signal in the well to which DMSO is added.
row,SMILES,inhibition at 0.3 µM [%]
1,"Cc1cc(Br)cc(C)c1-n1cc2c(=O)[nH]c(-c3ccncn3)nc2n1 [Example 185, 2-(4-bromo-2,6-dimethylphenyl)-6-(pyrimidin-4-yl)-2,5-dihydro-4H-pyrazolo[3,4-d]pyrimidin-4-one]",114
2,"Cc1cc(C2CC2)cc(C)c1-n1cc2c(=O)[nH]c(C3COCCO3)nc2n1 (racemic) [Example 232, 2-(4-cyclopropyl-2,6-dimethylphenyl)-6-(1,4-dioxan-2-yl)-2,5-dihydro-4H-pyrazolo[3,4-d]pyrimidin-4-one]",97
3,"Cc1cc(C2CC2)cc(C)c1-n1cc2c(=O)[nH]c(CC(C)(C)O)nc2n1 [Example 181, 2-(4-cyclopropyl-2,6-dimethylphenyl)-6-(2-hydroxy-2-methylpropyl)-2,5-dihydro-4H-pyrazolo[3,4-d]pyrimidin-4-one]",103
4,"Cc1ccc(-n2cc3c(=O)[nH]c(O[C@H]4C[C@H](C#N)C4)nc3n2)c(C)c1 [Example 219, 3-{[2-(2,4-dimethylphenyl)-4-oxo-4,5-dihydro-2H-pyrazolo[3,4-d]pyrimidin-6-yl]oxy}cyclobutane-1-carbonitrile]",96
5,"Cc1nc2nn(-c3c(C)cc(Br)cc3C)cc2c(=O)[nH]1 [Example 187, 2-(4-bromo-2,6-dimethylphenyl)-6-methyl-2,5-dihydro-4H-pyrazolo[3,4-d]pyrimidin-4-one]",97
6,"CCOc1nc2nn(-c3ccc(C4(F)CC4)cc3F)cc2c(=O)[nH]1 [Example 183, 6-ethoxy-2-[2-fluoro-4-(1-fluorocyclopropyl)phenyl]-2,5-dihydro-4H-pyrazolo[3,4-d]pyrimidin-4-one]",96
7,"Cc1ccc(-n2cc3c(=O)[nH]c(OCCCC(F)(F)F)nc3n2)c(C)c1 [Example 196, 2-(2,4-dimethylphenyl)-6-(4,4,4-trifluorobutoxy)-2,5-dihydro-4H-pyrazolo[3,4-d]pyrimidin-4-one]",55
8,"COc1nc2nn(-c3c(C)cc(C4CC4)cc3C(F)F)cc2c(=O)[nH]1 [Example 209, 2-[4-cyclopropyl-2-(difluoromethyl)-6-methylphenyl]-6-methoxy-2,5-dihydro-4H-pyrazolo[3,4-d]pyrimidin-4-one]",103
9,"CCOc1nc2nn(-c3c(F)cc(C4CC4)cc3CC(F)(F)F)cc2c(=O)[nH]1 [Example 206, 2-[4-cyclopropyl-2-fluoro-6-(2,2,2-trifluoroethyl)phenyl]-6-ethoxy-2,5-dihydro-4H-pyrazolo[3,4-d]pyrimidin-4-one]",97

# Same assay, conditions: Homo sapiens, THP-1, 6 μM, LPS priming, ATP activation, read-out: IL-1β inhibitory rate at 6 μM (%)
row,SMILES,inhibition at 6 µM [%]
1,"COCc1nc2nn(-c3c(C(F)F)cc(C4CC4)c(C4CC4)c3C)cc2c(=O)[nH]1 [Example 320, 2-[3,4-dicyclopropyl-6-(difluoromethyl)-2-methylphenyl)-6-(methoxymethyl)-2,5-dihydro-4H-pyrazolo[3,4-d]pyrimidin-4-one]",94
2,"Cc1cc(C2(F)CC2)cc(C)c1-n1cc2c(=O)[nH]c(-c3ccn(C)n3)nc2n1 [Example 292, 2-[4-(1-fluorocyclopropyl)-2,6-dimethylphenyl]-6-(1-methyl-1H-pyrazol-3-yl)-2,5-dihydro-4H-pyrazolo[3,4-d]pyrimidin-4-one]",101
3,"Cc1cc(C2CC2)cc(C)c1-n1cc2c(=O)[nH]c(C3(C#N)CC3)nc2n1 [Example 318, 1-[2-(4-cyclopropyl-2,6-dimethylphenyl)-4-oxo-4,5-dihydro-2H-pyrazolo[3,4-d]pyrimidin-6-yl]cyclopropane-1-carbonitrile]",98
4,"Cc1cc(C2CC2)cc(C)c1-n1cc2c(=O)[nH]c(C(C)(F)F)nc2n1 [Example 259, 2-(4-cyclopropyl-2,6-dimethylphenyl)-6-(1,1-difluoroethyl)-2,5-dihydro-4H-pyrazolo[3,4-d]pyrimidin-4-one]",104
5,"Cc1cc(C2CC2)cc(C)c1-n1cc2c(=O)[nH]c(CCOCc3ccccc3)nc2n1 [Example 268, 6-[2-(benzyloxy)ethyl]-2-(4-cyclopropyl-2,6-dimethylphenyl)-2,5-dihydro-4H-pyrazolo[3,4-d]pyrimidin-4-one]",98
6,"O=c1[nH]c(C2COCCO2)nc2nn(-c3c(F)cc(C4CC4)cc3C(F)F)cc12 (racemic) [Example 305, 2-[4-cyclopropyl-2-(difluoromethyl)-6-fluorophenyl]-6-(1,4-dioxan-2-yl)-2,5-dihydro-4H-pyrazolo[3,4-d]pyrimidin-4-one]",103
7,"Cc1c(Br)c(Br)cc(C(F)F)c1-n1cc2c(=O)[nH]c(COC(F)F)nc2n1 [Example 280, 2-[3,4-dibromo-6-(difluoromethyl)-2-methylphenyl]-6-[(difluoromethoxy)methyl]-2,5-dihydro-4H-pyrazolo[3,4-d]pyrimidin-4-one]",99
8,"O=c1[nH]c(COC(F)F)nc2nn(-c3ccc(Br)cc3C(F)F)cc12 [Example 267, 2-[4-bromo-2-(difluoromethyl)phenyl]-6-[(difluoromethoxy)methyl]-2,5-dihydro-4H-pyrazolo[3,4-d]pyrimidin-4-one]",101
9,"Cc1cc(C2CC2)cc(C)c1-n1cc2c(=O)[nH]c(C3(C)COC3)nc2n1 [Example 315, 2-(4-cyclopropyl-2,6-dimethylphenyl)-6-(3-methyloxetan-3-yl)-2,5-dihydro-4H-pyrazolo [3,4-d]pyrimidin-4-one]",101
10,"Cc1cc(C2CC2)cc(C)c1-n1cc2c(=O)[nH]c(-c3ncc(C(F)(F)F)[nH]3)nc2n1 [Example 242, 2-(4-cyclopropyl-2,6-dimethylphenyl)-6-[5-(trifluoromethyl)-1H-imidazol-2-yl]-2,5-dihydro-4H-pyrazolo[3,4-d]pyrimidin-4-one]",104
11,"CCOc1nc2nn(-c3c(Br)cc(C4CC4)cc3C(F)F)cc2c(=O)[nH]1 [Example 250, 2-[2-bromo-4-cyclopropyl-6-(difluoromethyl)phenyl]-6-ethoxy-2,5-dihydro-4H-pyrazolo[3,4-d]pyrimidin-4-one]",103
12,"CO[C@H]1C[C@H](Oc2nc3nn(-c4ccc(C)cc4C)cc3c(=O)[nH]2)C1 [Example 244, 2-(2,4-dimethylphenyl)-6-{[(1r,3r)-3-methoxycyclobutyl]oxy}-2,5-dihydro-4H-pyrazolo[3,4-d]pyrimidin-4-one]",100
13,"CCOc1nc2nn(-c3c(Br)cc(Br)cc3C(F)F)cc2c(=O)[nH]1 [Example 251, 2-[2,4-dibromo-6-(difluoromethyl)phenyl]-6-ethoxy-2,5-dihydro-4H-pyrazolo[3,4-d]pyrimidin-4-one]",105
14,"O=c1[nH]c(COC(F)F)nc2nn(-c3ccc(C4CC4)cc3C(F)F)cc12 [Example 271, 2-[4-cyclopropyl-2-(difluoromethyl)phenyl]-6-[(difluoromethoxy)methyl]-2,5-dihydro-4H-pyrazolo[3,4-d]pyrimidin-4-one]",102
15,"CO[C@H]1C[C@@H](c2nc3nn(-c4c(C)cc(C5CC5)cc4C)cc3c(=O)[nH]2)C1 [Example 248, 2-(4-cyclopropyl-2,6-dimethylphenyl)-6-[(1s,3s)-3-methoxycyclobutyl]-2,5-dihydro-4H-pyrazolo[3,4-d]pyrimidin-4-one]",100
16,"Cc1cc(C2CC2)cc(C)c1-n1cc2c(=O)[nH]c(CN3CCCO3)nc2n1 [Example 237, 2-(4-cyclopropyl-2,6-dimethylphenyl)-6-[(1,2-oxazolidin-2-yl)methyl]-2,5-dihydro-4H-pyrazolo[3,4-d]pyrimidin-4-one]",98

# Same assay, conditions: Homo sapiens, THP-1, 10 μM, LPS priming, ATP activation, read-out: IL-1β inhibitory rate at 10 μM (%)
row,SMILES,inhibition at 10 µM [%]
1,"Cc1cc(Br)cc(C)c1-n1cc2c(=O)[nH]c([C@@H](C)C(=O)O)nc2n1 [Example 170, 2-[2-(4-bromo-2,6-dimethylphenyl)-4-oxo-4,5-dihydro-2H-pyrazolo [3,4-d]pyrimidin-6-yl]propanoic acid]",136
2,"Cc1cc(C2CC2)cc(C(F)F)c1-n1cc2c(=O)[nH]c([C@H]3COCCO3)nc2n1 [Example 325, 2-[4-cyclopropyl-2-(difluoromethyl)-6-methylphenyl]-6-[(2R)-1,4-dioxan-2-yl]-2,5-dihydro-4H-pyrazolo[3,4-d]pyrimidin-4-one or 2-[4-cyclopropyl-2-(difluoromethyl)-6-methylphenyl]-6-[(2S)-1,4-dioxan-2-yl]-2,5-dihydro-4H-pyrazolo[3,4-d]pyrimidin-4-one]",100
